Source: patent US20110118274A1, “PROTEASOME INHIBITORS AND THEIR USE IN TREATING PATHOGEN INFECTION AND CANCER” (CORNELL RESEARCH FOUNDATION, INC., priority 2007, published 2011)
Read-outs that look alike come from different tables or passages of the source.

Assays:
[1] = test system: Mtb H37Rv; test: Mycobactericidal activity against Mtb (CFU); assay type: cell-based, Mycobacterium tuberculosis; conditions: Mycobacterium tuberculosis, H37RV, 96 h; read-out: Mtb killing (50 μM)
[2] = target: α-chymotrypsin (Bos taurus, UniProt P00766); test: Inhibition of α-chymotrypsin; assay type: biochemical, mammalian
Excerpt: The unique inactivation mechanism of oxathiazol-2-ones led to an examination of selectivity of these compounds among non-proteasomal proteases, such as chymotrypsin, trypsin, cathepsin B, and matrix metalloproteinase (MMP)-2, representatives of the serine-, cysteine-, and matrix metalloproteinase classes. […] In contrast to the proteasome's N-terminal Thr active site residue, chymotrypsin's active site Ser residue is positioned internally. Given the lack of a terminal NH2 group, the acyl-enzyme intermediate formed by reaction of oxathiazol-2-one with the γ-OH of chymotrypsin's active site Ser can undergo either aqueous hydrolysis to reactivate the enzyme or regeneration of oxathiazol-2-one by the released —OH or —SH group attacking —CO-γO-Ser.

[3] = target: T1, Mtb PrcAB-OG (Mycobacterium tuberculosis, UniProt P9WHT9); test: biochemical; assay type: biochemical; conditions: read-out: kobs/[I] Mtb-OG
T1 construct: made in house; host or cells: E. coli
T1 sequence (P9WHT9 58-291): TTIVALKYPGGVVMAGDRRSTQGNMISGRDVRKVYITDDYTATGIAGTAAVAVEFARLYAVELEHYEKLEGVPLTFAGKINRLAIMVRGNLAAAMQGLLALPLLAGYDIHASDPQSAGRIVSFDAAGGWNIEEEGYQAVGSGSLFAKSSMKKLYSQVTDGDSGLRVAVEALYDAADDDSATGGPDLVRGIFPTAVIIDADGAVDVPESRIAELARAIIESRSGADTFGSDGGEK

[4] = test system: M. bovis BCG; test: microbe, parasite or virus in culture; assay type: cell-based, Mycobacterium bovis BCG; conditions: Mycobacterium tuberculosis variant bovis BCG, BCG, 96 h, read-out: BCG killing (25 μM)
[5] = target: human 20S-β5 (Hu20S PA28) (Homo sapiens, UniProt P28074); test: Kinetics of inhibition of human 20S proteasome β5 site in presence of PA28; assay type: biochemical; conditions: read-out: kobs/[I] Hu20S PA28
[6] = target: T2, Mtb proteasome (Mycobacterium tuberculosis, UniProt P9WHT9); assay type: biochemical; conditions: dialysis 18 hours against inhibitor-free buffer
T2 construct: made in house; host or cells: E. coli
T2 sequence (P9WHT9 58-291): as above
T2 sequence (P9WHU1 9-248 partner, looked up, natural form): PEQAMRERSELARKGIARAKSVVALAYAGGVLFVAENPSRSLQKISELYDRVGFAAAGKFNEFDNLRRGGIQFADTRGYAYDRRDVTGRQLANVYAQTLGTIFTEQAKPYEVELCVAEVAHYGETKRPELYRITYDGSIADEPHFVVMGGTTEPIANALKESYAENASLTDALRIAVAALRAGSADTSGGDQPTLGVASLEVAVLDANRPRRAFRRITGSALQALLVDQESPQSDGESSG

[7] = test system: human monocyte-derived macrophages; test: Cytotoxicity, human monocyte-derived macrophages; assay type: cell-based; conditions: 0.5 μM, 7 days
Method: (§1) Given that proteasome-inhibiting oxathiazol-2ones killed mycobacteria, their impact on the survival of mammalian cells was tested. […] In contrast, less than 10% of Vero cells remained viable after 4-day exposure to 25 nM bortezomib. Finally, because most Mtb in nature resides in human macrophages, we exposed human monocyte-derived macrophages (mostly multinucleated giant cells) to 100 μM GL3, GL5 or GL6 for 7 days.

[8] = test system: Vero monkey kidney epithelial cells; test: Cytotoxicity, Vero cells; assay type: cell-based; conditions: 25 nM, 4-day exposure
Method: as §1

| Compound | log reduction at 50 µM [1] | IC50 [2] [µM] | log reduction at 25 µM [4] | kinact/KI [5] [M⁻¹ s⁻¹] | kinact/KI ([3]; Table 1) [M⁻¹ s⁻¹] | other results |
| --- | --- | --- | --- | --- | --- | --- |
| O=c1oc(-c2cccc(F)c2)ns1 [HT1071] | 2.2 | 2.67 | > 3 | 31.3 |  | kinact/KI [3]: 1060 M⁻¹ s⁻¹ |
| O=c1oc(-c2cccc(C(F)(F)F)c2)ns1 [HT1086] |  | 48.1 |  | 0.4 | 155 |  |
| O=c1oc(-c2ccco2)ns1 [HT1113] | 2 | 22.7 | 1 | 10.1 | 435 |  |
| Cc1ccc(-c2nsc(=O)o2)cc1 [HT1117] |  | 3.67 |  | 53.4 | 433 |  |
| Cc1cccc(-c2nsc(=O)o2)c1 [HT1118] | 1.7 | 15.8 | 0.8 | 11.3 |  | kinact/KI [3]: 133 M⁻¹ s⁻¹ |
| O=c1oc(-c2ccccc2)ns1 [HT1146] |  | 10 |  | 31.3 | 409 |  |
| COc1cc(OC)cc(-c2nsc(=O)o2)c1 [HT1147] |  | 83.9 |  |  | 45.8 |  |
| Cc1sc(-c2nsc(=O)o2)cc1[N+](=O)[O-] [HT1171] |  |  |  |  | 3490 |  |
| C[C@@]12OC(=O)[C@]1([C@@H](O)[C@@H]1C=CCCC1)NC(=O)[C@@H]2CCCl [NPI-0052] |  |  |  |  |  | activity recovered after dialysis [6]: did not restore the activity |
| CC(C)C[C@H](NC(=O)[C@H](Cc1ccccc1)NC(=O)c1cnccn1)B(O)O [bortezomib, reference compound] |  |  |  |  |  | morphologic sign of cytotoxicity [7]: rounded up or appeared to disintegrate; activity recovered after dialysis [6]: 70%; Vero cells remaining viable [8]: less than 10% |
